In publication PMC9977398, “Next-generation membrane-active glycopeptide antibiotics that also inhibit bacterial cell division” (Chemical Science, 2023):

What was measured:
[1] = system: biofilms of MRSA; test: Disruption of mature biofilms, confocal microscopy; type: cell-based, S. aureus; details: 20 μM; for thickness of biofilm after treatment: 24 h, untreated 11.8 μm
Description: Another growing challenge in treating bacterial infections is the formation of biofilms, which are recalcitrant to antibiotic treatment.[29] Most antibiotics including vancomycin are rendered ineffective against biofilms consisting of both dividing and non-dividing cells, majorly due to their inability to penetrate through the extracellular polymeric matrix. Thus, it is important to develop compounds that eradicate biofilms as well as planktonic cells. Untreated biofilms of MRSA grew to a thickness of 11.8 μm (Fig. S3A ^†). The vancomycin-treated biofilms remained intact with thickness similar to the untreated control. […]
were added to it the wells containing bacterial suspension. Fluorescence has monitored at excitation wavelength of 535 nm (slit width: 10 nm) and emission wavelength of 617 nm (slit width: 5 nm). As a measure of inner membrane permeabilization the uptake of PI was monitor by the increase in fluorescence for 30-50 min. For assessing depolarisation against stationary phase cells of MRSA ATCC 33591, cells were grown to the stationary phase for 16 h. The culture was then diluted to an OD600 of 0.2 and the depolarisation assays was performed as described. The experiments were performed three times independently in duplicates and the graph is representative of the results from all experiments.
Cytoplasmic membrane depolarization assay5
Mid log phase MRSA were harvested (3500 rpm, 5 min), washed in 5 mM glucose and 5 mM HEPES buffer (pH 7.2) in 1:1 ratio and resuspended in 5 mM HEPES buffer, 5 mM glucose and 100 mM KCl solution in 1:1:1 ratio. Then 2 μM of 3, 3′-Dipropylthiadicarbocyanine iodide (DiSC3(5)) was added to bacterial suspension and pre-incubated for 45 min. The fluorescence was monitored at excitation wavelength of 622 nm and emission wavelength of 670 nm. Then 20 μL of test compound and vancomycin were added to black well plates containing bacterial suspension and DiSC3(5) after 2-4 min of fluorescence measurement. As a measure of membrane depolarization fluorescence was monitor for another 35 min. […]

[2] = system: B. subtilis; test: BacLight assay (pore formation assay); type: cell-based; details: treatment at PEC
Description: To examine if the compounds form pores on the membrane, a mixture of the fluorescent dyes SYTO 9 and PI was used. While SYTO 9 penetrates both intact and permeabilized cells staining them green, PI is unable to cross the intact membrane and stains only permeabilized or dead cells red. Membrane-disrupting antibiotics such as nisin are known to form pores in the membrane is stained by both SYTO 9 and PI (Fig. 4D). […] Around 20% of the cells visualized post-treatment with both compounds were stained by PI and therefore permeabilized. […]
and the untreated control were carefully removed from the well, washed with 0.9 % saline, and placed on glass slides. The biofilms were then stained with 10 μL of SYTO9 (60μM) and imaged using a Zeiss 510 Meta confocal laser-scanning microscope. The orthogonal projections of the images were processed with LSM 5 Image examiner. […]
Overnight cultures of B. subtilis 168 were grown in 50 mL flasks in 5 mL BMM media. […] The MIC was determined as the lowest concentration at which no visible bacterial OD […]
Overnight cultures of B. subtilis 168 were grown in 50 mL flasks with 10 mL of media. […] The O.D. of the solutions are recorded every 30 minutes. […]
resuspended in prewarmed BMM media. […] The fluorescence in the GFP and Texas red channels was then observed under the microscope. […]

| SMILES | thickness of biofilm after treatment [1] [μm] | reduction of thickness of biofilms ([1]; mature MRSA biofilm) | pore formation (co-staining SYTO 9 and PI) [2] |
| --- | --- | --- | --- |
| CCCCCCCCCCNC(=O)C[N+](C)(C)CCCNC(=O)C1NC(=O)C2NC(=O)C(NC(=O)C3NC(=O)C(CC(N)=O)NC(=O)C(NC(=O)C(CC(C)C)NC)C(O)c4ccc(c(Cl)c4)Oc4cc3cc(c4OC3OC(CO)C(O)C(O)C3OC3CC(C)(N)C(O)C(C)O3)Oc3ccc(cc3Cl)C2O)c2ccc(O)c(c2)-c2c(O)cc(O)cc21 (centres unmarked) [VanQAmC10 (8)] | 7.4 | about 40% | did not co-stain cells with both the dyes |
| CN[C@H](CC(C)C)C(=O)N[C@H]1C(=O)N[C@@H](CC(N)=O)C(=O)N[C@H]2C(=O)N[C@H]3C(=O)N[C@H](C(=O)N[C@H](C(=O)O)c4cc(O)cc(O)c4-c4cc3ccc4O)[C@H](O)c3ccc(c(Cl)c3)Oc3cc2cc(c3O[C@@H]2O[C@H](CO)[C@@H](O)[C@H](O)[C@H]2O[C@H]2C[C@](C)(N)[C@H](O)[C@H](C)O2)Oc2ccc(cc2Cl)[C@H]1O [Vancomycin, reference compound] | 10.1 |  |  |
| CNC(CC(C)C)C(=O)NC1C(=O)NC(CC(N)=O)C(=O)NC2C(=O)NC3C(=O)NC(C(=O)NC(C(=O)NCCC[N+](C)(C)Cc4ccc(-c5ccccc5)cc4)c4cc(O)cc(O)c4-c4cc3ccc4O)C(O)c3ccc(c(Cl)c3)Oc3cc2cc(c3OC2OC(CO)C(O)C(O)C2OC2CC(C)(N)C(O)C(C)O2)Oc2ccc(cc2Cl)C1O (centres unmarked) [VanQbiph (4)] |  |  | did not co-stain cells with both the dyes |
